Experimental data reported in patent publication US11098016B2, “Indazole derivatives useful as glucagon receptor antagonists” (JANSSEN PHARMACEUTICA NV, priority 2016, dated 2021).
pKi: −log10 of the molar value.

These compounds were tested on glucagon receptor (assay: Glucagon challenge in vivo assay measuring blood glucose (normal dog glucagon challenge test)). Settings: male beagle dogs; 10 mg/kg oral gavage.
Procedure: Glucagon Challenge In Vivo Assay Measuring Blood Glucose
The efficacy of a glucagon receptor antagonist was evaluated using a normal dog glucagon challenge test. Male beagle dogs were overnight fasted prior to the study. Test compound (at 3 mg/kg and 10 mg/kg for Compound #196 and at 10 mg/kg for Compounds #180, #248 and #253) or vehicle (0.5% hydroxypropyl methylcellulose) was dosed via oral gavage. Ninety minutes later, the dogs (1.5 years old, ˜9 Kg) were submitted to a glucagon challenge test by a single intramuscular injection of glucagon (Glucagon, rDNA origin, Eli Lilly, Indianapolis, Ind.) at dose of […]. Blood glucose levels were determined at times −10 min, 0 min (on challenge), 10 min, 20 min, 30 min, and 60 min after glucagon injection.

For Cc1c(-c2ccc(C(F)(F)F)cc2Cl)ccc2nn([C@@H](CC(C)C)c3ccc(C(=O)NCCC(=O)O)cc3)cc12 [Compound 180, 3-[[4-[(1S)-1-[5-[2-Chloro-4-(trifluoromethyl)phenyl]-4-methyl-indazol-2-yl]-3-methyl-butyl]benzoyl]amino]propanoic Acid], the “blood glucose levels during glucagon challenge time compared with vehicle treated group” value was “markedly reduced blood glucose levels”.

The compounds below were run against T1, human GCGR (Homo sapiens, UniProt P47871) (assay: Cellular functional assay, cAMP readout: inhibition of glucagon stimulated cAMP). Settings: not given.
T1 construct: expressed in transfected cells; host or cells: HEK293 (hGluc-1HEK), pcDNA3.1, G418 selection
T1 sequence (P47871 26-477): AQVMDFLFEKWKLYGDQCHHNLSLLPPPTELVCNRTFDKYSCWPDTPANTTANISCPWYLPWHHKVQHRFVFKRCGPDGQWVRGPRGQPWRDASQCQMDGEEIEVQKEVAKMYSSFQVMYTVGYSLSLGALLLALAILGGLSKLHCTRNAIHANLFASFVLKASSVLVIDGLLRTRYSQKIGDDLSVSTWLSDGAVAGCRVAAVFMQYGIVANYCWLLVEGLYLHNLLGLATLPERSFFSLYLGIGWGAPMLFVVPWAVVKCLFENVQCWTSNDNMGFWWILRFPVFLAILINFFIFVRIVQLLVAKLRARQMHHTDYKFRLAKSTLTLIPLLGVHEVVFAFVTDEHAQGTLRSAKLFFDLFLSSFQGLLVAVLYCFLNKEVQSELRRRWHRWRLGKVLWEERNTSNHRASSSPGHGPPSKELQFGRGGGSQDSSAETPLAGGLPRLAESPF
Format: cell-based
Procedure: IC50 Values in Cellular Functional Assays: cAMP Readout
Full-length human GCGR (Accession Number: NM000160) subcloned into pcDNA3.1 was stably transfected into HEK293 cells (hGluc-1HEK) and maintained under G418 selection (500 μg/mL). Cell cultures were maintained in DMEM/F12 media supplemented with 10% FBS and 1% GlutaMax™ Supplement (Available from ThermoFisher Scientific, catalog #35050061). Glucagon stimulated cAMP was quantified using LANCE technology as per manufacturer instructions. On the day of the experiment, spent media was removed and cells were washed with Hank's Buffered Saline solution (HBSS), and cells harvested with non-enzymatic cell dissociation solution, then washed once with HBSS. Cells were re-suspended in stimulation buffer at a concentration of 0.83×10^6 cells/ml and cAMP detection antibody was added. 6 μl/well of this solution was then dispensed in a 384 well plate (cell density 5000 cells/well). Test compound was serially diluted in DMSO and 50 nl were dispensed on top of the cell solution and allowed to incubate for 30 minutes. 6 μl of a 2× glucagon solution (final concentration in assay 100 pM) was then added and the reaction was terminated after 5 minutes with the addition of detection mix. The resulting mixture was incubated, protected from light for 1.5 h. cAMP levels were quantified by TR-FRET in an EnVision instrument against a known standard. IC50's were generated by using a non-linear regression macro driven in Excel and converted to Ki values.

Point of comparison: O=C(O)CCNC(=O)c1ccc(C(CCC2CCCCC2)n2cc3cc(-c4ccc(C(F)(F)F)cc4)ccc3n2)cn1 (stereo not shown) [Compound 186], pKi 6.56. Against it:
- CC(C)CC(c1ccc(CNCCC(=O)O)cc1)n1ncc2cc(-c3ccc(OC(F)(F)F)cc3)ccc21 (stereo not shown) [Compound 10, 3-((4-(3-Methyl-1-(5-(4-(trifluoromethoxy)phenyl)-1H-indazol-1-yl)butyl)benzyl)amino)propanoic Acid] — within 0.2 log units, 6.55
- Cc1cc(Cl)ccc1-c1ccc2nn(C(CCC3CCCCC3)c3ccc(C(=O)NCCC(=O)O)nc3)cc2c1 (stereo not shown) [Compound 184] — 0.59 log units higher, 7.15
- CC(C)CC(c1ccc(CNCCC(=O)O)cc1)n1ncc2cc(-c3cc(Cl)cc(Cl)c3)ccc21 (stereo not shown) [Compound 118, 3-((4-(1-(5-(3,5-Dichlorophenyl)-1H-indazol-1-yl)-3-methylbutyl)benzyl)amino)propanoic Acid] — 0.91 log units lower, 5.65
- O=C(O)CCNC(=O)c1ccc(C(CCc2ccccc2)n2ncc3cc(-c4ccc(C(F)(F)F)cc4)ccc32)cc1 (stereo not shown) [Compound 142] — 0.49 log units lower, 6.07
- COc1ccc(-c2ccc3c(cnn3C(CC(C)C)c3ccc(CNCCC(=O)O)cc3)c2)cc1 (stereo not shown) [Compound 38, 3-((4-(1-(5-(4-Methoxyphenyl)-1H-indazol-1-yl)-3-methylbutyl)benzyl)amino)propanoic Acid] — 0.37 log units lower, 6.19
- COCCC(c1ccc(C(=O)NCCC(=O)O)cc1)n1cc2cc(-c3ccc(C(F)(F)F)cc3)ccc2n1 (stereo not shown) [Compound 202] — 0.60 log units lower, 5.96
- Cc1cc(C(F)(F)F)ccc1-c1ccc2c(cnn2C(CC(C)C)c2ccc(CNCCC(=O)O)cc2)c1 (stereo not shown) [Compound 84, 3-((4-(3-Methyl-1-(5-(2-methyl-4-(trifluoromethyl)phenyl)-1H-indazol-1-yl)butyl)benzyl)amino)propanoic Acid] — 0.51 log units higher, 7.07
- O=C(O)CCNC(=O)c1ccc(C(CCc2ccccc2)n2cc3cc(-c4ccc(C(F)(F)F)cc4)ccc3n2)cc1 (stereo not shown) [Compound 104] — 0.28 log units higher, 6.84
